Results published in patent publication US20110021570A1, “PYRIDONE GLUCOKINASE ACTIVATORS” (priority 2009, published 2011).

Molecular target: T1, Recombinant human liver GK1 (GST-GK) (Homo sapiens, UniProt P35557)
T1 construct: made in house; host or cells: E. coli
T1 sequence (P35557 1-466 isoform P35557-2): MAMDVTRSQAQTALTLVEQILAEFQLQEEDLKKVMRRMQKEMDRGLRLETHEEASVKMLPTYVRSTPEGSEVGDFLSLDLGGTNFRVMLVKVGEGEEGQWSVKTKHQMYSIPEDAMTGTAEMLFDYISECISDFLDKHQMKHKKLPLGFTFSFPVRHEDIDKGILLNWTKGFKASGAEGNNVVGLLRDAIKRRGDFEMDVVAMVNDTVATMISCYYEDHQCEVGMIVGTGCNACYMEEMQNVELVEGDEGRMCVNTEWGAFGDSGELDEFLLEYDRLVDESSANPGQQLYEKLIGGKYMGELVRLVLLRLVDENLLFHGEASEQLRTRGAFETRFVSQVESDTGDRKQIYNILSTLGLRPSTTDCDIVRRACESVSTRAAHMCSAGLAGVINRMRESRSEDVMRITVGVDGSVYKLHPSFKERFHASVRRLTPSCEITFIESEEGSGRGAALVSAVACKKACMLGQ
Assay: Glucokinase in vitro assay (G6PDH-coupled, NADH generation)
Type: biochemical
Settings: concentration of activator that produced a 50% increase in the activity of GK; 5 mM D-glucose, 30° C., pH 7.1
Experimental: Glucokinase In Vitro Assay Protocol: Glucokinase (GK) was assayed by coupling the production of glucose-6-phosphate to the generation of NADH with glucose-6-phosphate dehydrogenase (G6PDH, 0.75-1 kunits/mg; Boehringer Mannheim, Indianapolis, Ind.) from Leuconostoc mesenteroides as the coupling enzyme:
Recombinant human liver GK1 was expressed in E. coli as a glutathione S-transferase fusion protein (GST-GK) [Liang et al, 1995] and was purified by chromatography over a glutathione-Sepharose 4B affinity column using the procedure provided by the manufacturer (Amersham Pharmacia Biotech, Piscataway, N.J.).
The assay was conducted at 30° C. in a flat bottom 96-well tissue culture plate from Costar (Cambridge, Mass.) with a final incubation volume of 120 μL. The incubation reaction contained the following: 25 mM Hepes buffer (pH 7.1), 25 mM KCl, 5 mM D-glucose, 1 mM ATP, 1.8 mM NAD, 2 mM MgCl2, 1 μM sorbitol-6-phosphate, 1 mM dithiothreitol, test drug or 10% DMSO, ˜7 units/ml G6PDH, and GK (see below). All organic reagents were >98% pure and were from Boehringer Mannheim with the exceptions of D-glucose and Hepes which were from Sigma Chemical Co, St Louis, Mo. Test compounds were dissolved in DMSO and were added to the incubation reaction minus GST-GK in a volume of 12 μL to yield a final DMSO concentration of 10%. This mix was pre-incubated in the temperature controlled chamber of a SPECTRAmax 250 microplate spectrophotometer (Molecular Devices Corporation, Sunnyvale, Calif.) for 10 minutes to allow temperature equilibrium and then the reaction was started by the addition of […].
After addition of enzyme, the increase in optical density (OD) at 340 nm was monitored spectrophotometrically to determine the rate of change (OD340 per min). The GK activity (0D340/min) in control wells (10% DMSO minus GK activators) was compared with the activity in wells containing test GK activators, and the concentration of activator that produced a 50% increase in the activity of GK, i.e., the SC1.5, was calculated. The table below provides the in vitro glucokinase activity for the compounds in the Examples: […]

Structure (SMILES) | SC1.5 average [µM]
CC(C)CC(C(=O)Nc1ccn(C)n1)n1ccc(Oc2cccc(F)c2F)cc1=O (stereo not drawn) [Example 1, 2-[4-(2,3-Difluoro-phenoxy)-2-oxo-2H-pyridin-1-yl]-4-methyl-pentanoic acid (1-methyl-1H-pyrazol-3-yl)-amide] | 10.4
Cc1ccccc1Oc1ccn(C(CC(C)C)C(=O)Nc2ccn(C)n2)c(=O)c1 (stereo not drawn) [Example 4, 4-Methyl-2-(2-oxo-4-o-tolyloxy-2H-pyridin-1-yl)-pentanoic acid (1-methyl-1H-pyrazol-3-yl)-amide] | 7.3
CC(C)CC(C(=O)Nc1ccn(C)n1)n1ccc(Oc2ccccc2C(F)(F)F)cc1=O (stereo not drawn) [Example 6, 4-Methyl-2-[2-oxo-4-(2-trifluoromethyl-phenoxy)-2H-pyridin-1-yl]-pentanoic acid (1-methyl-1H-pyrazol-3-yl)-amide] | 11.4
CC(C)CC(C(=O)Nc1ccn(C)n1)n1ccc(Oc2ccccc2-c2ccccc2)cc1=O (stereo not drawn) [Example 9, 2-[4-(Biphenyl-2-yloxy)-2-oxo-2H-pyridin-1-yl]-4-methyl-pentanoic acid (1-methyl-1H-pyrazol-3-yl)-amide] | >30
CC(C)CC(C(=O)Nc1ccn(C)n1)n1ccc(Oc2ccccc2C(C)C)cc1=O (stereo not drawn) [Example 10, 2-[4-(2-Isopropyl-phenoxy)-2-oxo-2H-pyridin-1-yl]-4-methyl-pentanoic acid (1-methyl-1H-pyrazol-3-yl)-amide] | 4.5
Cc1c(Cl)cccc1Oc1ccn(C(CC(C)C)C(=O)Nc2ccn(C)n2)c(=O)c1 (stereo not drawn) [Example 12, 2-[4-(3-Chloro-2-methyl-phenoxy)-2-oxo-2H-pyridin-1-yl]-4-methyl-pentanoic acid (1-methyl-1H-pyrazol-3-yl)-amide] | 9.0
CC(C)CC(C(=O)Nc1ccn(C)n1)n1ccc(Oc2cccc3ccccc23)cc1=O (stereo not drawn) [Example 14, 4-Methyl-2-[4-(naphthalen-1-yloxy)-2-oxo-2H-pyridin-1-yl]-pentanoic acid (1-methyl-1H-pyrazol-3-yl)-amide] | 2.6
CC(C)CC(C(=O)Nc1ccn(C)n1)n1ccc(Oc2ccccc2Cl)cc1=O (stereo not drawn) [Example 15, 2-[4-(2-Chloro-phenoxy)-2-oxo-2H-pyridin-1-yl]-4-methyl-pentanoic acid (1-methyl-1H-pyrazol-3-yl)-amide] | 6.2
CC(C)CC(C(=O)Nc1ccn(C)n1)n1ccc(Oc2ccccc2OC(F)(F)F)cc1=O (stereo not drawn) [Example 16, 4-Methyl-2-[2-oxo-4-(2-trifluoromethoxy-phenoxy)-2H-pyridin-1-yl]pentanoic acid (1-methyl-1H-pyrazol-3-yl)-amide] | 8.8
COc1ccccc1Oc1ccn(C(CC(C)C)C(=O)Nc2ccn(C)n2)c(=O)c1 (stereo not drawn) [Example 18, 2-[4-(2-Methoxy-phenoxy)-2-oxo-2H-pyridin-1-yl]-4-methyl-pentanoic acid (1-methyl-1H-pyrazol-3-yl)-amide] | 8.1

Results, then the molecule that gave them:

SC1.5 average [µM] | Structure (SMILES)
>30 | CC(C)CC(C(=O)Nc1ccn(C)n1)n1ccc(Oc2cccc(F)c2)cc1=O (stereo not drawn) [Example 2, 2-[4-(3-Fluoro-phenoxy)-2-oxo-2H-pyridin-1-yl]-4-methyl-pentanoic acid (1-methyl-1H-pyrazol-3-yl)-amide]
21.7 | CC(C)CC(C(=O)Nc1ccn(C)n1)n1ccc(Oc2ccccc2)cc1=O (stereo not drawn) [Example 3, 4-Methyl-2-(2-oxo-4-phenoxy-2H-pyridin-1-yl)-pentanoic acid (1-methyl-1H-pyrazol-3-yl)-amide]
4.2 | CC(C)CC(C(=O)Nc1ccn(C)n1)n1ccc(Oc2c(F)cccc2F)cc1=O (stereo not drawn) [Example 5, 2-[4-(2,6-Difluoro-phenoxy)-2-oxo-2H-pyridin-1-yl]-4-methyl-pentanoic acid (1-methyl-1H-pyrazol-3-yl)-amide]
>30 | CC(C)CC(C(=O)Nc1ccn(C)n1)n1ccc(Oc2ccc(F)cc2)cc1=O (stereo not drawn) [Example 7, 2-[4-(4-Fluoro-phenoxy)-2-oxo-2H-pyridin-1-yl]-4-methyl-pentanoic acid (1-methyl-1H-pyrazol-3-yl)-amide]
26.1 | CC(C)CC(C(=O)Nc1ccn(C)n1)n1ccc(Oc2cccnc2)cc1=O (stereo not drawn) [Example 8, 4-Methyl-2-[2-oxo-4-(pyridin-3-yloxy)-2H-pyridin-1-yl]-pentanoic acid (1-methyl-1H-pyrazol-3-yl)-amide]
22.5 | CC(C)CC(C(=O)Nc1ccn(C)n1)n1ccc(Oc2ccc(F)cc2F)cc1=O (stereo not drawn) [Example 11, 2-[4-(2,4-Difluoro-phenoxy)-2-oxo-2H-pyridin-1-yl]-4-methyl-pentanoic acid (1-methyl-1H-pyrazol-3-yl)-amide]
16.6 | CC(C)CC(C(=O)Nc1ccn(C)n1)n1ccc(Oc2cc(F)ccc2F)cc1=O (stereo not drawn) [Example 13, 2-[4-(2,5-Difluoro-phenoxy)-2-oxo-2H-pyridin-1-yl]-4-methyl-pentanoic acid (1-methyl-1H-pyrazol-3-yl)-amide]
8.4 | CC(C)CC(C(=O)Nc1ccn(C)n1)n1ccc(Oc2ccccc2F)cc1=O (stereo not drawn) [Example 17, 2-[4-(2-Fluoro-phenoxy)-2-oxo-2H-pyridin-1-yl]-4-methyl-pentanoic acid (1-methyl-1H-pyrazol-3-yl)-amide]
